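Cultured in 96-well plates, cells were exposed to test compound for 48 hours across five concentrations. GI50 = concentration required for 50% inhibition of growth.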 Active and inactive are the calls of the source. Rule as the data show it: active = GI50 up to about 1.1 µM and inactive = higher. Bounds are passed on as bounds.

Some test systems named below: OVCAR-8; M14; U-251; Malme-3M; MOLT-4; RPMI-8226; NCI-H226; SK-OV-3; SK-MEL-28; HCT-15; NCI-H23; UACC-62; SF-268; SW-620; NCI-H460; SF-295; OVCAR-4; HCT-116; A549; SR.
Experiment in all cases: NCI anticancer screen, dose series, 48 h

For the compound `COc1cccc(C2C(C(=O)O)=C(CO)Oc3cc4c(cc32)OCO4)c1` (centres undefined), the GI50 with OVCAR-8, in the assay with M14, in the assay with U-251, in the assay on Malme-3M, in the assay on MOLT-4 and in the assay with RPMI-8226 was > 100 µM (inactive) throughout. Besides, the GI50 in the assay on NCI-H226 was > 100 µM (inactive); with SK-OV-3 it was > 100 µM (inactive); in the assay on SK-MEL-28 it was > 100 µM (inactive); in the assay with HCT-15, greater than 100 µM; in the assay on NCI-H23, > 100 µM (inactive); with UACC-62, > 100 µM (inactive). Further, the GI50 in the assay on SF-268, in the assay on SW-620, in the assay on NCI-H460 and with SF-295 was > 100 µM (inactive) in each case.

For the compound `COc1cccc(/C=C/C(=O)N2CC(CCl)c3c2cc(N)c2ccccc32)c1` (centres undefined), the GI50 in the assay on OVCAR-4 was 0.00344 µM (active); with OVCAR-8, 0.00109 µM (active); with M14, 0.00957 µM (active); in the assay on HCT-116, 0.00109 µM (active); in the assay on U-251, 0.000344 µM (active); in the assay with Malme-3M, < 0.01 µM (active). The GI50 in the assay with MOLT-4 was 0.0194 µM (active); with RPMI-8226, 0.0507 µM (active); with NCI-H226, 0.0137 µM (active); in the assay on SK-OV-3, 0.00371 µM (active); in the assay with SK-MEL-28 it was 0.0114 µM (active); in the assay with HCT-15, 0.034 µM. The GI50 was 0.00065 µM (active) with NCI-H23; 0.00298 µM (active) with UACC-62; 0.000693 µM (active) with SF-268; 0.00153 µM (active) with A549; 0.00194 µM (active) in the assay with SW-620; 0.000115 µM (active) in the assay on NCI-H460. For the same compound, the GI50 in the assay with SF-295 was 0.00114 µM (active).

Consider `CC(C)(C)OC(=O)NC1CCCC1=O` (centres undefined), for which the GI50 with OVCAR-4, in the assay on OVCAR-8, in the assay on M14, in the assay with HCT-116, in the assay with U-251 and in the assay with Malme-3M was > 100 µM (inactive) throughout. Also, the GI50 in the assay with MOLT-4, in the assay on SR, with NCI-H226, in the assay with SK-OV-3, in the assay with SK-MEL-28 and in the assay on NCI-H23 was > 100 µM (inactive) throughout. The GI50 in the assay on UACC-62, with SF-268, with A549, with SW-620, in the assay on NCI-H460 and with SF-295 was > 100 µM (inactive) in each case.

`COC(=O)C(C(=O)C(=O)Nc1ccc(C)cc1C)c1csc(-n2nc(-c3ccccc3)cc2-c2ccccc2)n1` (centres undefined): the GI50 with OVCAR-4 was 82.4 µM (inactive); with OVCAR-8 it was > 100 µM (inactive); with M14 it was > 100 µM (inactive); in the assay on HCT-116, 58.1 µM (inactive); in the assay on U-251, 67.5 µM (inactive); in the assay on Malme-3M, > 100 µM (inactive). Also, the GI50 is 22.5 µM (inactive) in the assay with MOLT-4; > 100 µM (inactive) with SR; 80.2 µM (inactive) in the assay with NCI-H226; > 100 µM (inactive) in the assay with SK-OV-3; 52.1 µM in the assay with HCT-15; > 100 µM (inactive) with NCI-H23. The GI50 in the assay on UACC-62 was 61.7 µM (inactive); in the assay on SF-268, 86.7 µM (inactive); in the assay with A549 it was > 100 µM (inactive); in the assay on SW-620, > 100 µM (inactive); in the assay on NCI-H460, > 100 µM (inactive).

Turning to `C=C1C(=O)O[C@@H]2[C@H]3O[C@]3(C)CCC=C(C)CC[C@@H]12`, the GI50 with OVCAR-4 was 21.6 µM (inactive); in the assay with OVCAR-8, 16.7 µM (inactive); in the assay with HCT-116, 10.3 µM (inactive); in the assay with U-251, 41.6 µM (inactive); with Malme-3M it was 13.4 µM (inactive); in the assay on MOLT-4, 14.2 µM (inactive). Further, the GI50 with RPMI-8226 is 8.71 µM (inactive); in the assay on NCI-H226, 20.5 µM (inactive); in the assay on SK-OV-3, 54.7 µM (inactive); in the assay on SK-MEL-28 it was 21.1 µM (inactive); with HCT-15 it was 14.7 µM; with NCI-H23, 20.2 µM (inactive). Moreover, the GI50 was 16.8 µM (inactive) in the assay on UACC-62; 23.7 µM (inactive) with SF-268; 94.6 µM (inactive) with A549; 14.8 µM (inactive) with SW-620; 18.8 µM (inactive) in the assay on NCI-H460; 24.8 µM (inactive) in the assay on SF-295.

Regarding `Cc1ccc(S(=O)(=O)N2CCCSCC2)cc1`, the GI50 in the assay with OVCAR-4, with OVCAR-8, in the assay with HCT-116, in the assay with U-251, in the assay with MOLT-4 and in the assay with SR was > 100 µM (inactive) throughout. The GI50 with NCI-H226 is > 100 µM (inactive); in the assay on SK-OV-3, > 100 µM (inactive); in the assay on SK-MEL-28, > 100 µM (inactive); with HCT-15, greater than 100 µM; with NCI-H23 it was > 100 µM (inactive); with SF-268 it was > 100 µM (inactive). Besides, the GI50 with A549, in the assay on SW-620, with NCI-H460 and in the assay with SF-295 was > 100 µM (inactive) throughout.

For `CC(C)(Br)C1(O)CCCN1C(=O)c1ccccc1` (centres undefined), the GI50 with OVCAR-8, with M14, in the assay with HCT-116, with U-251, with Malme-3M and in the assay on MOLT-4 was > 100 µM (inactive) in each case. Besides, the GI50 in the assay with SR is > 100 µM (inactive); in the assay with SK-OV-3, > 100 µM (inactive); in the assay with SK-MEL-28, > 100 µM (inactive); with HCT-15, greater than 100 µM; in the assay on NCI-H23, > 100 µM (inactive); with UACC-62, > 100 µM (inactive). The GI50 is > 100 µM (inactive) with SF-268; > 100 µM (inactive) in the assay with A549; > 100 µM (inactive) in the assay with SW-620; > 100 µM (inactive) in the assay with NCI-H460; 25.1 µM (inactive) with SF-295.

For the compound `Brc1cccc(Nc2ncnc3sc4c(c23)CCC(Nc2cccc(Br)c2)C4)c1` (centres undefined), the GI50 with OVCAR-4, with OVCAR-8, with M14, with HCT-116, in the assay on U-251 and in the assay on Malme-3M was > 100 µM (inactive) each time. In addition, the GI50 in the assay on MOLT-4 was > 100 µM (inactive); in the assay with SK-OV-3, > 100 µM (inactive); with SK-MEL-28, > 100 µM (inactive); with HCT-15 it was greater than 100 µM; in the assay with NCI-H23, > 100 µM (inactive); with UACC-62, > 100 µM (inactive). For the same compound, the GI50 with SF-268, in the assay on A549, with SW-620, in the assay on NCI-H460 and with SF-295 was > 100 µM (inactive) throughout.

For `CCCn1cc2c3c(cccc31)C1C=C(C)CN(C)C1C2` (centres undefined), the GI50 with OVCAR-4 is 10.1 µM (inactive); in the assay with OVCAR-8, 29.7 µM (inactive); in the assay with HCT-116, 10.4 µM (inactive); in the assay on U-251, 19 µM (inactive); with Malme-3M it was 18.7 µM (inactive); in the assay with MOLT-4, 9.66 µM (inactive). Further, the GI50 in the assay on RPMI-8226 is 6.61 µM (inactive); in the assay with NCI-H226, 12.8 µM (inactive); with SK-OV-3, 37.3 µM (inactive); in the assay with SK-MEL-28, 18.1 µM (inactive); with HCT-15 it was 17.4 µM; with NCI-H23 it was 25.5 µM (inactive). Further, the GI50 in the assay with UACC-62 is 23.4 µM (inactive); in the assay on SF-268 it was 29 µM (inactive); in the assay with A549, 34.5 µM (inactive); in the assay on SW-620 it was 23.4 µM (inactive); with NCI-H460, 12 µM (inactive); with SF-295, 23.8 µM (inactive).

As for `COC[C@@H](Cc1ccc(OC)c(OC)c1)[C@@H](COC)Cc1ccc(OC)c(OC)c1`, the GI50 in the assay on OVCAR-8 is > 100 µM (inactive); with M14, > 100 µM (inactive); in the assay with HCT-116, 94 µM (inactive); with U-251, > 100 µM (inactive); in the assay with Malme-3M, > 100 µM (inactive); in the assay with MOLT-4, 60.3 µM (inactive). The GI50 was 95.3 µM (inactive) with SR; > 100 µM (inactive) in the assay on SK-OV-3; > 100 µM (inactive) in the assay on SK-MEL-28; greater than 100 µM in the assay on HCT-15; > 100 µM (inactive) with NCI-H23; > 100 µM (inactive) in the assay on UACC-62. Besides, the GI50 in the assay with SF-268, in the assay on A549, in the assay with SW-620, with NCI-H460 and in the assay on SF-295 was > 100 µM (inactive) in each case.

For the compound `CN(C)/N=N/c1ccc([N+](=O)[O-])cc1C(N)=O`, the GI50 with OVCAR-4 is > 100 µM (inactive); in the assay with OVCAR-8 it was > 100 µM (inactive); in the assay on HCT-116, > 100 µM (inactive); in the assay on U-251, > 100 µM (inactive); with Malme-3M it was > 100 µM (inactive); in the assay with MOLT-4, > 79.6 µM (inactive). Besides, the GI50 is > 100 µM (inactive) in the assay with RPMI-8226; > 100 µM (inactive) in the assay with NCI-H226; > 100 µM (inactive) with SK-OV-3; > 100 µM (inactive) with SK-MEL-28; greater than 100 µM with HCT-15; > 100 µM (inactive) with NCI-H23. Also, the GI50 in the assay with UACC-62, in the assay with SF-268, with A549, with SW-620, in the assay with NCI-H460 and in the assay on SF-295 was > 100 µM (inactive) throughout.

As for `Cc1cc2oc3c(ccc(=O)n3C)c(=O)c2c(C)c1Cl`, the GI50 in the assay with OVCAR-4 is > 100 µM (inactive); in the assay with OVCAR-8, 76.2 µM (inactive); in the assay on M14 it was 28.5 µM (inactive); in the assay with HCT-116, 34.9 µM (inactive); in the assay on U-251, 38.2 µM (inactive); with Malme-3M, 57.7 µM (inactive). In addition, the GI50 with SR was 38.1 µM (inactive); in the assay with NCI-H226, 35.6 µM (inactive); in the assay with SK-OV-3, 75.5 µM (inactive); with SK-MEL-28 it was 26.5 µM (inactive); with HCT-15, 77.6 µM; in the assay on NCI-H23, 44.6 µM (inactive). In addition, the GI50 in the assay on UACC-62 was 40.1 µM (inactive); with SF-268, 55.5 µM (inactive); in the assay with A549, 45 µM (inactive); in the assay with SW-620, 82.6 µM (inactive); with NCI-H460 it was 61 µM (inactive); in the assay with SF-295, 54.8 µM (inactive).

The values above are taken from ChEMBL document CHEMBL1201862, “PubChem BioAssay data set” (2004).
